Assay [1] addresses T1, T4 DNA polymerase (Enterobacteria phage T4, UniProt P04415).
T1 construct: purchased Takara (Kyoto, Japan)
T1 sequence (P04415 1-898): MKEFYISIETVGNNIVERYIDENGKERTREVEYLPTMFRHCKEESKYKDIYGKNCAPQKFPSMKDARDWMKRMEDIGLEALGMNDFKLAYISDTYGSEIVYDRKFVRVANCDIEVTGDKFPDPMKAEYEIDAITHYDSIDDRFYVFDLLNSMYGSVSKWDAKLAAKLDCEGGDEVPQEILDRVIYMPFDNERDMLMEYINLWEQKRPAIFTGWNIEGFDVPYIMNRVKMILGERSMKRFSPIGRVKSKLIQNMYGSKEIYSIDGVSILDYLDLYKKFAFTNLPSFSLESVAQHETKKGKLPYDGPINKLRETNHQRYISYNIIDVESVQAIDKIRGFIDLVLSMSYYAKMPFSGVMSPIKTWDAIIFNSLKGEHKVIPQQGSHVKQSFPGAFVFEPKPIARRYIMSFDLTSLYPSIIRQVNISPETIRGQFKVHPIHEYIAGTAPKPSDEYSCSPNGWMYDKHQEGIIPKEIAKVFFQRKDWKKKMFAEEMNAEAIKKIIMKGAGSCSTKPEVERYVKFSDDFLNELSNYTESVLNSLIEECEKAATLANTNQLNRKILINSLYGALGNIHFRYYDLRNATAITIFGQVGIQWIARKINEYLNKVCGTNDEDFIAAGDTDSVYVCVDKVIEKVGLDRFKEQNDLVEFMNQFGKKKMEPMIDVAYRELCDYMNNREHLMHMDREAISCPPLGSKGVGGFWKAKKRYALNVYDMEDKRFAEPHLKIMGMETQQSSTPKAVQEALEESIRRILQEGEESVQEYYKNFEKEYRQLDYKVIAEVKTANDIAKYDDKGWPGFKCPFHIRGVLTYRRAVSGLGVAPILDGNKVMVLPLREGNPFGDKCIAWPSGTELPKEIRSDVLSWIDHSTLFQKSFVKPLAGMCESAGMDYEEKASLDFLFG
In words: DNA polymerase assay, T4 pol. In kind it is biochemical. The text has this:
(§1) Pol α was purified from calf thymus by immuno-affinity column chromatography as described by Tamai et al.. Recombinant rat pol β was purified from E. coli JMpβ5 as described by Date et al.. The human pol γ catalytic gene was cloned into pFastBac. Histidine-tagged enzyme was expressed using the BAC-TO-BAC HT Baculovirus Expression System according to the supplier's manual (LIFE TECHNOLOGIES, MD, USA) and purified using ProBoundresin (Invitrogen Japan, Tokyo, Japan). Human pols δ and ε were purified by the nuclear fractionation of human peripheral blood cancer cells (Molt-4) using the second subunit of pols δ and ε-conjugated affinity column chromatography, respectively. Recombinant human pols η and ι tagged with His6 at their C-terminal were expressed in SF9 insect cells using the baculovirus expression system, and were purified as described previously. A truncated form of pol κ (i.e., hDINB1DC) with 6 x His-tags attached at the C-terminal was overproduced using the BAC-to-BAC Baculovirus Expression System kit (GIBCO BRL, MD, USA) and purified as described previously. […]
For pols, poly(dA)/oligo(dT)12-18 (A/T = 2/1) and dTTP were used as the DNA template-primer and nucleotide (i.e., dNTP) substrate, respectively. […] Activity without the inhibitor was considered 100%, and the remaining activity at each concentration of the inhibitor was determined relative to this value. […]

Assay [2] deals with T2, Bovine Deoxyribonuclease I (Bos taurus, UniProt P00639).
T2 construct: Bovine pancreas deoxyribonuclease I (DNase I) was obtained from Stratagene Cloning Systems; purchased Stratagene Cloning Systems (La Jolla, CA, USA); host or cells: bovine pancreas
The experiment in a line: Deoxyribonuclease I assay. Format: biochemical.
Text: as §1
The primase activity of calf pol α, the activities of T7 RNA polymerase, T4 polynucleotide kinase and bovine DNase I were measured in standard assays according to the manufacturer's specifications as described by Tamiya-Koizumi et al., Nakayama et al., Soltis et al., and Lu and Sakaguchi, respectively.

The structures appear in SMILES notation.

T2 sequence (P00639 23-282): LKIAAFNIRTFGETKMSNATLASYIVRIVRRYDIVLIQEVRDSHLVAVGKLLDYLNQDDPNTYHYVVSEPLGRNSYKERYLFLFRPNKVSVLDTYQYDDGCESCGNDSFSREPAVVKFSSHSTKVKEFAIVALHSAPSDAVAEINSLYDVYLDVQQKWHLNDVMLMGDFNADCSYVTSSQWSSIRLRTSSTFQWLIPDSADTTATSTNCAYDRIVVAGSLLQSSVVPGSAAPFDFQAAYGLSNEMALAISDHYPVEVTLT

`CC1=CC[C@H]2C(C)(C)CCC[C@]2(C)[C@H]1CCCCCCCCCCCCCCCCC(=O)O` (relative stereo) [compound 11, (1S*,4aS*,8aS*)-17-(1,4,4a,5,6,7,8,8a-octahydro-2,5,5,8a-tetramethylnaphthalen-1-yl)heptadecanoic acid]: the IC50 in assay [1] and in assay [2] was more than 200 µM each time.

Usually IC50 stands for the concentration at which inhibition is half-maximal. A higher IC50 goes with lower potency.

These data come from publication PMC6253949, “The Inhibitory Action of Kohamaic Acid A Derivatives on Mammalian DNA Polymerase β” (Molecules, 2008).
